In ChEMBL document CHEMBL1123233, “Preparation and analgesic activity of (-)-11 alpha-substituted 1,2,3,4,5,6-hexahydro-6 alpha,7-(methyleneoxy)-2,6-methano-3-benzazocines” (J Med Chem, 1986) one finds EC50, ED50 and AD50 data, which are given here for eleven molecules.

The species named for assay [1] is Mus musculus. In words: The compound was evaluated for analgesic response in the mouse vas deferens assay (max response 80.6+/-4.0%). The class given is functional, organism-based.
The species named for assay [2] is Mus musculus. The experiment in a line: Compound was evaluated for analgesic response in the mouse vas deferens assay in the presence of naltrexone. (max response […]). The class given is functional, organism-based.
The species entered for assay [3] is Mus musculus. The experiment in a line: Compound was tested in mouse tail-flick antinociceptive assay. It counts as functional.
Assay [4] concerns Mus musculus. In words: Compound was tested in mouse tail-flick analgesic antagonist assay vs morphine at 30 mg/kg; Inactive. The class given is functional, organism-based. Also noted: dose 30 mg/kg.
The species named for assay [5] is Mus musculus. The experiment in a line: Compound was evaluated for antagonism in the mouse vas deferens assay in the presence of morphine at 10E-6 M; Inactive. The class given is functional, organism-based.
Assay [6] is filed under the species Mus musculus. In words: Compound was tested in phenylquinone antinociceptive assay. It counts as functional.
Assay [7] relates to Mus musculus. In words: Compound was tested for its analgesic activity in mouse hotplate assay at 20 mg/kg; Inactive. Set-up: dose 20 mg/kg. The class given is functional, organism-based.
The species named for assay [8] is Mus musculus. In words: Compound was tested in mouse tail-flick analgesic antagonist assay vs morphine. The class given is functional.
The test system of assay [9] is Mus musculus. In words: Compound was tested in mouse tail-flick antinociceptive assay at 30 mg/kg; Inactive. It counts as functional, organism-based. Set-up: dose 30 mg/kg.
The subject of assay [10] is Mus musculus. The experiment in a line: Compound was tested in mouse tail-flick analgesic antagonist assay vs morphine at 30 mg/kg. It counts as functional.
The species entered for assay [11] is Mus musculus. In words: Compound was tested for its analgesic activity in mouse hotplate assay. It counts as functional.
Assay [12] is filed under the species Mus musculus. The experiment in a line: Compound was tested in mouse tail-flick antinociceptive assay. It counts as functional.
The species named for assay [13] is Mus musculus. The experiment in a line: Compound was tested in phenylquinone antinociceptive assay. The class given is functional.
The species named for assay [14] is Mus musculus. In words: Compound was evaluated for analgesic response in the mouse vas deferens assay (max response 77.1+/-8.0%). It counts as functional, organism-based.
For assay [15], the species on record is Mus musculus. The experiment in a line: Compound was evaluated for analgesic response in the mouse vas deferens assay in the presence of naltrexone. (max response 43.4+/-8.1%). It counts as functional, organism-based.
In assay [16] the test system is Mus musculus. In words: Compound was tested for its analgesic activity in mouse hotplate assay at 50 mg/kg; Inactive. The class given is functional, organism-based. Also noted: dose 50 mg/kg.
For assay [17], the species on record is Mus musculus. In words: Compound was evaluated for antagonism in the mouse vas deferens assay at 10E-6 M; Inactive. The class given is functional, organism-based.
The species named for assay [18] is Mus musculus. The experiment in a line: Compound was evaluated for analgesic response in the mouse vas deferens assay at 10E-5 M; Inactive. The class given is functional, organism-based.
In assay [19] the test system is Mus musculus. The experiment in a line: Compound was tested in mouse tail-flick antinociceptive assay at 10 mg/kg; Inactive. The class given is functional, organism-based. Set-up: dose 10 mg/kg.

In general, EC50 refers to the concentration at which the effect is half-maximal. What is called ED50 is the dose that gives a 50% effect, or the effect in half of the subjects.

Activity calls are given as the source filed them. No cut-off for these calls is given here.

Turning to `CCC[C@H]1C2Cc3ccc(OC(C)=O)c4c3[C@]1(CCN2C)CO4`, the EC50 is 85.2 nM in the assay filed under Mus musculus [1] and 422 nM in the assay listed under Mus musculus [2]. In addition, the values for the ED50 in the assay filed under Mus musculus [3] and in the assay filed under Mus musculus [6] were 0.7 mg/kg and 0.2 mg/kg, respectively. Besides, the AD50 result in the assay on Mus musculus [4] was “inactive”. Also, in the assay listed under Mus musculus [5], the ED50 result was “inactive”.

For the molecule `C=CCN1CC[C@]23COc4c(O)ccc(c42)CC1[C@@H]3CCC`, the ED50 entry with Mus musculus [7] and with Mus musculus [9] was “inactive” each time. Moreover, the AD50 in the assay listed under Mus musculus [8] turned out to be 0.4 mg/kg.

`C=CCN1CC[C@]23c4c5ccc(O)c4O[C@H]2C(=O)CC[C@@]3(O)[C@H]1C5.Cl` [NALOXONE HYDROCHLORIDE] gave an AD50 in the assay with Mus musculus [10] of 0.035 mg/kg.

Turning to `COc1ccc2c3c1O[C@H]1[C@@H](O)C=C[C@H]4[C@@H](C2)N(C)CC[C@@]341.COc1ccc2c3c1O[C@H]1[C@@H](O)C=C[C@H]4[C@@H](C2)N(C)CC[C@@]341.O.O=P(O)(O)O.O=P(O)(O)O` [CODEINE PHOSPHATE], the ED50 worked out at 14.5 mg/kg in the assay listed under Mus musculus [3], 1.1 mg/kg in the assay listed under Mus musculus [6] and 9.3 mg/kg in the assay listed under Mus musculus [11]. Also, in the assay with Mus musculus [4], the AD50 result is “inactive”.

For `CCC[C@H]1C2Cc3ccc(O)c4c3[C@]1(CCN2CCc1ccccc1)CO4`, the figures for the median effective dose (ED50) in the assay filed under Mus musculus [12], in the assay listed under Mus musculus [13] and in the assay filed under Mus musculus [11] were 1.4 mg/kg, 0.2 mg/kg and 1.7 mg/kg, respectively. Further, the AD50 entry in the assay with Mus musculus [4] is “inactive”.

For the molecule `CCC[C@H]1C2Cc3ccc(O)c4c3[C@]1(CCN2C)CO4`, the EC50 in the assay listed under Mus musculus [14] was determined as 350 nM; in the assay filed under Mus musculus [15], 3320 nM. The ED50 in the assay filed under Mus musculus [12] was determined as 0.4 mg/kg; in the assay filed under Mus musculus [13] it was 0.1 mg/kg; in the assay filed under Mus musculus [11] it was 1.8 mg/kg. Also, in the assay with Mus musculus [4], the AD50 entry is “inactive”. The ED50 result in the assay listed under Mus musculus [5] is “inactive”.

On to `CCC[C@H]1C2Cc3cccc4c3[C@]1(CCN2C)CO4`, for which the ED50 entry with Mus musculus [7] is “inactive”. Besides, the 50% effective dose (ED50) in the assay listed under Mus musculus [12] was found to be 20.7 mg/kg; in the assay listed under Mus musculus [13], 2.9 mg/kg. For the same molecule, in the assay with Mus musculus [4], the AD50 result is “inactive”.

Consider `CN1CC[C@]23c4c5ccc(O)c4O[C@H]2[C@@H](O)C=C[C@H]3[C@H]1C5.CN1CC[C@]23c4c5ccc(O)c4O[C@H]2[C@@H](O)C=C[C@H]3[C@H]1C5.O=S(=O)(O)O`, for which the ED50 in the assay filed under Mus musculus [11] came out at 1.2 mg/kg.

For the molecule `CCOC(=O)CC[C@H]1C2Cc3ccc(OC)c4c3[C@]1(CCN2C)CO4`, the AD50 entry in the assay with Mus musculus [4] is “inactive”. Further, the ED50 result in the assay on Mus musculus [16] and in the assay with Mus musculus [9] was “inactive” in each case.

Regarding `CCC[C@H]1C2Cc3ccc(OC)c4c3[C@]1(CCN2C)CO4`, the ED50 result in the assay on Mus musculus [7] was “inactive”. For the same molecule, the EC50 result in the assay filed under Mus musculus [17] and in the assay listed under Mus musculus [18] was “Not Active” throughout. For the same molecule, the values for the ED50 in the assay listed under Mus musculus [12] and in the assay listed under Mus musculus [13] were 8.1 mg/kg and 0.8 mg/kg, respectively. For the same molecule, the AD50 result in the assay with Mus musculus [4] was “inactive”.

Take `COc1ccc2c3c1OC[C@@]31CCN(C)C(C2)[C@@H]1CCCO`: the ED50 entry in the assay with Mus musculus [7] and in the assay with Mus musculus [19] was “inactive” in each case. Also, the AD50 result in the assay with Mus musculus [4] was “inactive”.
